Measured values published in article PMC3242598, “Phase I study of BIBF 1120 with docetaxel and prednisone in metastatic chemo-naive hormone-refractory prostate cancer patients” (British Journal of Cancer, 2011).

Test system: patients with metastatic, chemo-naive, hormone-refractory prostate cancer (HRPC)
Assay: Phase I safety analysis: adverse events graded by CTCAE version 3.0
Assay type: in vivo, human
Details: all courses
Procedure: On days 2–21 (21-day cycle), patients took an oral dose of BIBF 1120 twice daily. Patients were instructed to swallow BIBF 1120 with water at the same time every day to ensure a dose interval of ∼12 h. On day 2 of treatment cycles (TCs) 1 and 2, patients only took the morning dose of BIBF 1120, omitting the evening dose to allow PK evaluation. All patients were premedicated with oral corticosteroids (dexamethasone 8 mg per os or methylprednisolone 32 mg per os, at 12 h and 1 h before docetaxel infusion) and subsequently took 5 mg prednisone oral BID throughout the trial. On day 1 of each TC, patients received an IV infusion of 75 mg m^−2 docetaxel administered over 1 h.
All patients who received at least one dose of BIBF 1120 or docetaxel were assessed during the safety analysis. Intensity of AEs was graded according to Common Terminology Criteria for Adverse Events (CTCAE) version 3.0. Objective response was defined as a PSA decline ⩾50% from the baseline value over two consecutive courses and/or tumour response according to RECIST criteria ([Therasse et al, 2000]).

[1] = 100 mg BID (n=3) + docetaxel/prednisone, Gr 3/4
[2] = 100 mg BID (n=3) + docetaxel/prednisone, all grades
[3] = 150 mg BID (n=3) + docetaxel/prednisone, Gr 3/4
[4] = 150 mg BID (n=3) + docetaxel/prednisone, all grades
[5] = 200 mg BID (n=3) + docetaxel/prednisone, Gr 3/4
[6] = 200 mg BID (n=3) + docetaxel/prednisone, all grades

In the case of COC(=O)c1ccc2c(c1)NC(=O)/C2=C(\Nc1ccc(N(C)C(=O)CN2CCN(C)CC2)cc1)c1ccccc1 [BIBF 1120], the “Ageusia: patients with drug-related AE” value [1] is reported as 0, the “Alopecia: patients with drug-related AE” value [1] is reported as 0 and the “Anorexia: patients with drug-related AE” value [1] is reported as 0. For the same molecule, the “Asthenia: patients with drug-related AE” value [1] was 0, the “Constipation: patients with drug-related AE” value (from here on “Constipation: patients”) [1] was 0 and the “Diarrhoea: patients with drug-related AE” value [1] was 0. The “Dysgeusia: patients with drug-related AE” value [1] was 0, the “Dyspepsia: patients with drug-related AE” value [1] was 0 and the “Dysphonia: patients with drug-related AE” value [1] was 0. For the same molecule, the “Elevated ALT: patients with drug-related AE” value (shortened to “Elevated ALT: patients”) [1] was 0, the “Elevated AST: patients with drug-related AE” value (from here on “Elevated AST: patients”) [1] was 0 and the “Elevated GGT: patients with drug-related AE” value (“Elevated GGT: patients” for short) [1] was 0. The “Elevated alkaline phosphatase: patients with drug-related AE” value (“Elevated alkaline phosphatase: patients” for short) [1] was 0, the “Epistasis: patients with drug-related AE” value [1] was 0 and the “Headache: patients with drug-related AE” value [1] was 0. The “Hot flush: patients with drug-related AE” value [1] was 0, the “Mucosal inflammation: patients with drug-related AE” value (from here on “Mucosal inflammation: patients”) [1] was 0 and the “Muscle spasm: patients with drug-related AE” value (“Muscle spasm: patients” for short) [1] was 0. The “Nausea: patients with drug-related AE” value [1] was 0, the “Neuropathy: patients with drug-related AE” value (“Neuropathy: patients” for short) [1] was 0 and the “Pyrexia: patients with drug-related AE” value [1] was 0. The “Rash: patients with drug-related AE” value [1] was 0, the “Upper abdominal pain: patients with drug-related AE” value (shortened to “Upper abdominal pain: patients”) [1] was 0 and the “Vomiting: patients with drug-related AE” value [1] was 0. The “Weight decrease: patients with drug-related AE” value (from here on “Weight decrease: patients”) [1] was 0, the “Ageusia: patients with drug-related AE” value [2] was 0 and the “Alopecia: patients with drug-related AE” value [2] was 0. For the same molecule, the “Anorexia: patients with drug-related AE” value [2] was 0, the “Asthenia: patients with drug-related AE” value [2] was 0 and the “Constipation: patients” value [2] was 0. For the same molecule, the “Diarrhoea: patients with drug-related AE” value [2] was 0, the “Dysgeusia: patients with drug-related AE” value [2] was 0 and the “Dyspepsia: patients with drug-related AE” value [2] was 0. The “Dysphonia: patients with drug-related AE” value [2] was 0, the “Elevated ALT: patients” value [2] was 0 and the “Elevated AST: patients” value [2] was 0. The “Elevated GGT: patients” value [2] was 0, the “Elevated alkaline phosphatase: patients” value [2] was 0 and the “Epistasis: patients with drug-related AE” value [2] was 0. For the same molecule, the “Headache: patients with drug-related AE” value [2] was 0, the “Hot flush: patients with drug-related AE” value [2] was 0 and the “Mucosal inflammation: patients” value [2] was 0. For the same molecule, the “Muscle spasm: patients” value [2] was 0, the “Nausea: patients with drug-related AE” value [2] was 0 and the “Neuropathy: patients” value [2] was 0. The “Pyrexia: patients with drug-related AE” value [2] was 0, the “Rash: patients with drug-related AE” value [2] was 0 and the “Upper abdominal pain: patients” value [2] was 0. The “Vomiting: patients with drug-related AE” value [2] was 0, the “Weight decrease: patients” value [2] was 0 and the “Ageusia: patients with drug-related AE” value [3] was 0. The “Alopecia: patients with drug-related AE” value [3] was 0, the “Anorexia: patients with drug-related AE” value [3] was 0 and the “Asthenia: patients with drug-related AE” value [3] was 0. For the same molecule, the “Constipation: patients” value [3] was 0, the “Diarrhoea: patients with drug-related AE” value [3] was 0 and the “Dysgeusia: patients with drug-related AE” value [3] was 0. The “Dyspepsia: patients with drug-related AE” value [3] was 0, the “Dysphonia: patients with drug-related AE” value [3] was 0 and the “Elevated ALT: patients” value [3] was 0. The “Elevated AST: patients” value [3] was 0, the “Elevated GGT: patients” value [3] was 0 and the “Elevated alkaline phosphatase: patients” value [3] was 0. For the same molecule, the “Epistasis: patients with drug-related AE” value [3] was 0, the “Headache: patients with drug-related AE” value [3] was 0 and the “Hot flush: patients with drug-related AE” value [3] was 0. For the same molecule, the “Mucosal inflammation: patients” value [3] was 0, the “Muscle spasm: patients” value [3] was 0 and the “Nausea: patients with drug-related AE” value [3] was 0. For the same molecule, the “Neuropathy: patients” value [3] was 0, the “Pyrexia: patients with drug-related AE” value [3] was 0 and the “Rash: patients with drug-related AE” value [3] was 0. The “Upper abdominal pain: patients” value [3] was 0, the “Vomiting: patients with drug-related AE” value [3] was 0 and the “Weight decrease: patients” value [3] was 0. The “Ageusia: patients with drug-related AE” value [4] was 1, the “Alopecia: patients with drug-related AE” value [4] was 0 and the “Anorexia: patients with drug-related AE” value [4] was 3. For the same molecule, the “Asthenia: patients with drug-related AE” value [4] was 3, the “Constipation: patients” value [4] was 1 and the “Diarrhoea: patients with drug-related AE” value [4] was 3. The “Dysgeusia: patients with drug-related AE” value [4] was 1, the “Dyspepsia: patients with drug-related AE” value [4] was 1 and the “Dysphonia: patients with drug-related AE” value [4] was 1. The “Elevated ALT: patients” value [4] was 0, the “Elevated AST: patients” value [4] was 0 and the “Elevated GGT: patients” value [4] was 0. The “Elevated alkaline phosphatase: patients” value [4] was 0, the “Epistasis: patients with drug-related AE” value [4] was 1 and the “Headache: patients with drug-related AE” value [4] was 2. The “Hot flush: patients with drug-related AE” value [4] was 0, the “Mucosal inflammation: patients” value [4] was 0 and the “Muscle spasm: patients” value [4] was 0. The “Nausea: patients with drug-related AE” value [4] was 2, the “Neuropathy: patients” value [4] was 1 and the “Pyrexia: patients with drug-related AE” value [4] was 1. The “Rash: patients with drug-related AE” value [4] was 0, the “Upper abdominal pain: patients” value [4] was 1 and the “Vomiting: patients with drug-related AE” value [4] was 0. The “Weight decrease: patients” value [4] was 1, the “Ageusia: patients with drug-related AE” value [5] was 0 and the “Alopecia: patients with drug-related AE” value [5] was 0. The “Anorexia: patients with drug-related AE” value [5] was 0, the “Asthenia: patients with drug-related AE” value [5] was 0 and the “Constipation: patients” value [5] was 0. For the same molecule, the “Diarrhoea: patients with drug-related AE” value [5] was 2, the “Dysgeusia: patients with drug-related AE” value [5] was 0 and the “Dyspepsia: patients with drug-related AE” value [5] was 0. The “Dysphonia: patients with drug-related AE” value [5] was 0, the “Elevated ALT: patients” value [5] was 0 and the “Elevated AST: patients” value [5] was 0. The “Elevated GGT: patients” value [5] was 0, the “Elevated alkaline phosphatase: patients” value [5] was 0 and the “Epistasis: patients with drug-related AE” value [5] was 0. The “Headache: patients with drug-related AE” value [5] was 0, the “Hot flush: patients with drug-related AE” value [5] was 0 and the “Mucosal inflammation: patients” value [5] was 0. The “Muscle spasm: patients” value [5] was 0, the “Nausea: patients with drug-related AE” value [5] was 0 and the “Neuropathy: patients” value [5] was 0. The “Pyrexia: patients with drug-related AE” value [5] was 0, the “Rash: patients with drug-related AE” value [5] was 0 and the “Upper abdominal pain: patients” value [5] was 0. For the same molecule, the “Vomiting: patients with drug-related AE” value [5] was 0, the “Weight decrease: patients” value [5] was 0 and the “Ageusia: patients with drug-related AE” value [6] was 0. For the same molecule, the “Alopecia: patients with drug-related AE” value [6] was 0, the “Anorexia: patients with drug-related AE” value [6] was 0 and the “Asthenia: patients with drug-related AE” value [6] was 1. The “Constipation: patients” value [6] was 0, the “Diarrhoea: patients with drug-related AE” value [6] was 2 and the “Dysgeusia: patients with drug-related AE” value [6] was 0.
